From ChEMBL document CHEMBL3638530, “Viral polymerase inhibitors” (2013)

Molecular target: Genome polyprotein (Hepatitis C virus genotype 3a (isolate NZL1) (HCV), UniProt Q81258)
Assay: Inhibition Assay: HCV polymerase inhibition assay: HCV polymerase reactions were carried out using a modified mothod of Howe et al., Antimicrobial Agents and Chemotherapy 2004 48(12): 4813-4821.

Genome polyprotein, sequence (Q81258 2431-3021 limits assumed): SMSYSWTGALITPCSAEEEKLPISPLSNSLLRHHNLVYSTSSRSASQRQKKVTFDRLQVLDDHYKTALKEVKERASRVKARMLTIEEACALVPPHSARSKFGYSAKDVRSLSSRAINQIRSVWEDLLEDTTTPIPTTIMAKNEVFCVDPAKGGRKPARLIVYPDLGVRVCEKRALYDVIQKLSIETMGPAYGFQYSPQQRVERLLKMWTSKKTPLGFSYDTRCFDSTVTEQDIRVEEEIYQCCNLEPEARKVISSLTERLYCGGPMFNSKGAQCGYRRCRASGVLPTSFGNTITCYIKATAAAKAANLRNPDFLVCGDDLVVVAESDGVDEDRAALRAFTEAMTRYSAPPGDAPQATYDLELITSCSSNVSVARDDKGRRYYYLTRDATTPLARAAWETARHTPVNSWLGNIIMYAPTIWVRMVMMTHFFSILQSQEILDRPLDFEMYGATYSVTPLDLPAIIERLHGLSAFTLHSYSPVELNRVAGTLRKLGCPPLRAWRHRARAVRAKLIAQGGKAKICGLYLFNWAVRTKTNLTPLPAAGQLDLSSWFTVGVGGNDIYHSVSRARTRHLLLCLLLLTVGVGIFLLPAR

**Q.** CNC(=O)c1c2cc(C3CC3)c(N(CCCNC(=O)c3ncoc3C)S(C)(=O)=O)cc2nn1-c1ccc(Br)cc1 was tested. Which IC50 did it give?
**A.** 30 nM
